Laboratory results as given in patent publication US8071383B2, “D-amino acid selection for soybean” (BASF Plant Science GmbH, priority 2006, dated 2011).

Tests used:
Type in all cases: cell-based, Glycine max
soybean explants = experiment: SELDA selection and co-cultivation hormones, transformation efficiency; conditions: for Ave TE (%) / Confirmed events / TE range (%): vector RLM407, D-serine selection
Procedure: In the first experiment, the experimental design included 10 repetitions over time (cutting experiments by 3 researchers) with 4 different co-cultivation media (treatments) per repetition and a minimum of 50 explants per treatment. Solid co-cultivation was prepared as stated earlier except the hormone, BAP, was replaced with one of the 4 following hormones: 7.5 μM BAP, 1.0 μM kinetin, 5.0 μM kinetin, or 7.5 μM kinetin. In the second experiment, the experimental design included 3 repetitions over time (cutting experiments by 1 researcher) with 5 different co-cultivation media (treatments) per repetition and a minimum of 50 explants per treatment. Solid co-cultivation was prepared by replacing BAP with one of the 5 following hormones: 7.5 μM BAP, 1.0 μM kinetin, 3 μM kinetin, 5 μM kinetin, or 7 μM kinetin.
For both experiments, explants were prepared, inoculated with 50 mL of liquid co-cultivation medium containing SHA017/pSB1 carrying vector RLM407 for 30 minutes, and then randomly placed onto 1 of 4 or 5 solid co-cultivation media treatments, respectively. The protocol was followed as stated above with the D-serine selection regime: one week on shoot induction without selection, 3 weeks on shoot induction medium with 7.5 mM D-serine, then 5 mM D-serine throughout shoot elongation. Only one shoot per explant was removed to eliminate regeneration of clones. Putative transformants were confirmed for the presence of the dsda gene using quantitative PCR (TaqMan) and the transformation efficiency (TE) was calculated using the formula: [(number of dsda positive TaqMan confirmed independent events/total number of explants inoculated (n))*100].

[1] = tested on: soybean primary node explants inoculated with REW008; experiment: D-alanine and D-alanine/D-serine killing curves using primary node explants; conditions: for D-alanine Kill Curve-regeneration (%) after 3 weeks on SIM: Experiment 1; for D-alanine + 7.5 mM D-serine Kill Curve-regeneration (%) after 3 weeks on SIM: Experiment 2
Procedure: Kill curves for D-alanine selection with and without 7.5 mM D-serine were conducted for future experiments using dao1 as a selectable marker gene. The combination of using D-alanine and D-serine was also performed for the dao1 gene which can metabolize both D-alanine and D-serine. The binary plasmids RET019 (Pactin-dao1, Pubi-gus) and REW008 (Pnos-bar, Pubi-gus) were used as a positive and a negative control, respectively, and the T-DNA mobilized into soybean using Agrobacterium rhizogenes strain SHA017pSB1.
Explants were inoculated with Agrobacterium, co-cultivated for 5 days, then moved onto shoot induction medium with or without selection for one week. After that time, explants were transferred onto new SIM with selection.
In experiment 1, D-alanine was added to the SIM medium at the following concentrations: 0, 3, 7.5, 10, 20, 30, and 50 mM.
In experiment 2, D-alanine was added in the same concentrations with 7.5 mM D-serine.
The experimental design was as follows: T(treatment)1: 7 explants inoculated with REW008 with 1 week recovery; T2: 7 explants inoculated with REW008 with no recovery; The results of the experiment are shown in Table 2b. […] This drop was not seen on explants with recovery until 20 mM D-alanine. When in combination with D-serine, the explants do have reduced regeneration at lower concentrations, between 7.5 and 10 mM.

[2] = tested on: soybean axillary meristem explants, Dairyland cultivar 98043; experiment: Kill curve with D-serine on inoculated axillary meristem explants (shoot induction and elongation)
Procedure: In order to establish an effective level of selection during shoot induction and elongation a broad range of D-Serine concentrations was initially explored. Soybean axillary meristem explants were prepared from 7 day-old-seedlings from the Dairyland cultivar 98043, as described above in Examples 1 and 3.
Agrobacterium rhizogenes strain SHA017 with the Super Vir pSB1 plasmid and containing the binary plasmids pRET017 or pREW008 were prepared as described in example 2. pRET017 contains nosP-c-dsdA/na-nosT and pPcUBI-gusINT-nosT (Example 9). pREW008 contains nosP-bar-nosT and pPcUBI-gusINT-nosT and was used as a control vector (Example 9).
Explants were handled as described above in example 4. After one week on shoot induction medium (SIM) medium with no selection, explants were transferred to SIM medium containing various concentrations of D-serine ranging from 0 to 15 to 30 to 45 mM. All regenerating explants (shoot pads) were transferred to shoot elongation media (SEM) containing 3 mM D-serine after three and six weeks of incubation. Elongating shoots were transferred to rooting medium (RM) medium and screened by GUS expression and Taqman analysis.

[3] = tested on: non-Agrobacterium infected soybean axillary meristem explants; experiment: Killing curve for D-serine toxicity on non-inoculated seedling axillary meristem explants; conditions: 60 mM D-serine in SIM, 4 weeks
Procedure: Killing curves for D-serine toxicity on non-Agrobacterium infected soybean tissues were performed on axillary meristem explants. Thirty explants were prepared as described above in example 1 and cultured on SIM containing either 0 mM, 3 μM, 30 μM, 300 μM, 3 mM, 30 mM, or 60 mM D-serine for a total of 4 weeks. After this time, the percent of explants with new shoot primordia, i.e. appearance of multiple shoots, were counted. In this experiment, a reduction in regeneration occurred between 3 and 30 mM and only 30% regeneration on explants exposed to 60 mM D-serine was seen (FIG. 1).

[4] = Table 6 (experiment 1), 7.5 uM BAP in co-cultivation medium
[5] = Table 7 (experiment 2), 7.5 uM BAP in co-cultivation medium
[6] = Table 6 (experiment 1), 1 uM Kinetin in co-cultivation medium
[7] = Table 6 (experiment 1), 5 uM Kinetin in co-cultivation medium
[8] = Table 6 (experiment 1), 7.5 uM Kinetin in co-cultivation medium
[9] = Table 7 (experiment 2), 1 uM Kinetin in co-cultivation medium
[10] = Table 7 (experiment 2), 3 uM Kinetin in co-cultivation medium
[11] = Table 7 (experiment 2), 5 uM Kinetin in co-cultivation medium
[12] = Table 7 (experiment 2), 7 uM Kinetin in co-cultivation medium

Structure (SMILES): c1ccc(CNc2ncnc3nc[nH]c23)cc1 [BAP, 6-benzylaminopurine]
- Ave TE (%) (soybean explants; [4]): 0.4%
- Confirmed events (soybean explants; [4]): 3
- TE range (%) (soybean explants; [4]): 0-2.5%
- Ave TE (%) (soybean explants; [5]): 1.3%
- Confirmed events (soybean explants; [5]): 3
- TE range (%) (soybean explants; [5]): 0-2.5%

Structure (SMILES): C[C@@H](N)C(=O)O [D-alanine]
- D-alanine Kill Curve-regeneration (%) after 3 weeks on SIM ([1]; 3 mM D-alanine, T1: REW008 with 1 week recovery): 100%
- D-alanine Kill Curve-regeneration (%) after 3 weeks on SIM ([1]; 3 mM D-alanine, T2: REW008 with no recovery): 71%
- D-alanine Kill Curve-regeneration (%) after 3 weeks on SIM ([1]; 7.5 mM D-alanine, T1: REW008 with 1 week recovery): 100%
- D-alanine Kill Curve-regeneration (%) after 3 weeks on SIM ([1]; 7.5 mM D-alanine, T2: REW008 with no recovery): 86%
- D-alanine Kill Curve-regeneration (%) after 3 weeks on SIM ([1]; 10 mM D-alanine, T1: REW008 with 1 week recovery): 100%
- D-alanine Kill Curve-regeneration (%) after 3 weeks on SIM ([1]; 10 mM D-alanine, T2: REW008 with no recovery): 71%
- D-alanine Kill Curve-regeneration (%) after 3 weeks on SIM ([1]; 20 mM D-alanine, T1: REW008 with 1 week recovery): 100%
- D-alanine Kill Curve-regeneration (%) after 3 weeks on SIM ([1]; 20 mM D-alanine, T2: REW008 with no recovery): 27%
- D-alanine Kill Curve-regeneration (%) after 3 weeks on SIM ([1]; 30 mM D-alanine, T1: REW008 with 1 week recovery): 29%
- D-alanine Kill Curve-regeneration (%) after 3 weeks on SIM ([1]; 30 mM D-alanine, T2: REW008 with no recovery): 0%
- D-alanine Kill Curve-regeneration (%) after 3 weeks on SIM ([1]; 50 mM D-alanine, T1: REW008 with 1 week recovery): 0%
- D-alanine Kill Curve-regeneration (%) after 3 weeks on SIM ([1]; 50 mM D-alanine, T2: REW008 with no recovery): 0%
- D-alanine + 7.5 mM D-serine Kill Curve-regeneration (%) after 3 weeks on SIM ([1]; 3 mM D-alanine + 7.5 mM D-serine, T1: REW008 with 1 week recovery): 100%
- D-alanine + 7.5 mM D-serine Kill Curve-regeneration (%) after 3 weeks on SIM ([1]; 3 mM D-alanine + 7.5 mM D-serine, T2: REW008 with no recovery): 100%
- D-alanine + 7.5 mM D-serine Kill Curve-regeneration (%) after 3 weeks on SIM ([1]; 7.5 mM D-alanine + 7.5 mM D-serine, T1: REW008 with 1 week recovery): 100%
- D-alanine + 7.5 mM D-serine Kill Curve-regeneration (%) after 3 weeks on SIM ([1]; 7.5 mM D-alanine + 7.5 mM D-serine, T2: REW008 with no recovery): 71%
- D-alanine + 7.5 mM D-serine Kill Curve-regeneration (%) after 3 weeks on SIM ([1]; 10 mM D-alanine + 7.5 mM D-serine, T1: REW008 with 1 week recovery): 71%
- D-alanine + 7.5 mM D-serine Kill Curve-regeneration (%) after 3 weeks on SIM ([1]; 10 mM D-alanine + 7.5 mM D-serine, T2: REW008 with no recovery): 57%
- D-alanine + 7.5 mM D-serine Kill Curve-regeneration (%) after 3 weeks on SIM ([1]; 20 mM D-alanine + 7.5 mM D-serine, T1: REW008 with 1 week recovery): 57%
- D-alanine + 7.5 mM D-serine Kill Curve-regeneration (%) after 3 weeks on SIM ([1]; 20 mM D-alanine + 7.5 mM D-serine, T2: REW008 with no recovery): 0%
- D-alanine + 7.5 mM D-serine Kill Curve-regeneration (%) after 3 weeks on SIM ([1]; 30 mM D-alanine + 7.5 mM D-serine, T1: REW008 with 1 week recovery): 0%
- D-alanine + 7.5 mM D-serine Kill Curve-regeneration (%) after 3 weeks on SIM ([1]; 30 mM D-alanine + 7.5 mM D-serine, T2: REW008 with no recovery): 14%
- D-alanine + 7.5 mM D-serine Kill Curve-regeneration (%) after 3 weeks on SIM ([1]; 50 mM D-alanine + 7.5 mM D-serine, T1: REW008 with 1 week recovery): 0%
- D-alanine + 7.5 mM D-serine Kill Curve-regeneration (%) after 3 weeks on SIM ([1]; 50 mM D-alanine + 7.5 mM D-serine, T2: REW008 with no recovery): 0%
- D-alanine concentration at which the regeneration frequency drops below 70% ([1]; explants exposed immediately after co-cultivation): 30 mM
- D-alanine concentration at which the regeneration frequency drops below 70% ([1]; explants with recovery): 20 mM

Structure (SMILES): N[C@H](CO)C(=O)O [D-serine]
- shoot elongation ([2]; 3 mM D-Ser in SEM, explants coming from 30 or 45 mM D-Ser during shoot induction): no shoot elongation
- Percent of explants surviving after three weeks in shoot elongation (SEM) + 3 mM D-serine ([2]; D-Ser in SIM 0 mM, RET017): 82.8%
- Percent of explants surviving after three weeks in shoot elongation (SEM) + 3 mM D-serine ([2]; D-Ser in SIM 0 mM, REW008): 94.7%
- Percent of explants surviving after three weeks in shoot elongation (SEM) + 3 mM D-serine ([2]; D-Ser in SIM 15 mM, RET017): 74.1%
- Percent of explants surviving after three weeks in shoot elongation (SEM) + 3 mM D-serine ([2]; D-Ser in SIM 15 mM, REW008): 72.1%
- Percent of explants regenerating after 3 weeks in shoot induction (SIM) medium ([2]; D-Ser in SIM 15 mM, explants inoculated with RET017 (nosP-dsdA)): 78.1%
- Percent of explants regenerating after 3 weeks in shoot induction (SIM) medium ([2]; D-Ser in SIM 15 mM, explants inoculated with REW008 (control vector)): 76.9%
- Percent of explants surviving after three weeks in shoot elongation (SEM) + 3 mM D-serine ([2]; D-Ser in SIM 30 mM, RET017): 33.6%
- Percent of explants surviving after three weeks in shoot elongation (SEM) + 3 mM D-serine ([2]; D-Ser in SIM 30 mM, REW008): 34.5%
- Percent of explants regenerating after 3 weeks in shoot induction (SIM) medium ([2]; D-Ser in SIM 30 mM, explants inoculated with RET017 (nosP-dsdA)): 61.2%
- Percent of explants regenerating after 3 weeks in shoot induction (SIM) medium ([2]; D-Ser in SIM 30 mM, explants inoculated with REW008 (control vector)): 55.3%
- Percent of explants surviving after three weeks in shoot elongation (SEM) + 3 mM D-serine ([2]; D-Ser in SIM 45 mM, RET017): 4.9%
- Percent of explants surviving after three weeks in shoot elongation (SEM) + 3 mM D-serine ([2]; D-Ser in SIM 45 mM, REW008): 2.6%
- Percent of explants regenerating after 3 weeks in shoot induction (SIM) medium ([2]; D-Ser in SIM 45 mM, explants inoculated with RET017 (nosP-dsdA)): 25.5%
- Percent of explants regenerating after 3 weeks in shoot induction (SIM) medium ([2]; D-Ser in SIM 45 mM, explants inoculated with REW008 (control vector)): 21.9%
- shoot elongation ([2]; explants exposed to 15 mM D-Ser during shoot induction): Few shoots elongated
- percent of explants with new shoot primordia (regeneration) [3]: 30%
- D-alanine + 7.5 mM D-serine Kill Curve-regeneration (%) after 3 weeks on SIM ([1]; 0 mM D-alanine + 7.5 mM D-serine, T1: REW008 with 1 week recovery): 100%
- D-alanine + 7.5 mM D-serine Kill Curve-regeneration (%) after 3 weeks on SIM ([1]; 0 mM D-alanine + 7.5 mM D-serine, T2: REW008 with no recovery): 100%

Structure (SMILES): c1coc(CNc2ncnc3[nH]cnc23)c1 [Kinetin]
- Ave TE (%) (soybean explants; [6]): 1.4%
- Confirmed events (soybean explants; [6]): 10
- TE range (%) (soybean explants; [6]): 0-6.4%
- Ave TE (%) (soybean explants; [7]): 2.3%
- Confirmed events (soybean explants; [7]): 9
- TE range (%) (soybean explants; [7]): 0-4.2%
- Ave TE (%) (soybean explants; [8]): 2.7%
- Confirmed events (soybean explants; [8]): 19
- TE range (%) (soybean explants; [8]): 0-9.8%
- Ave TE (%) (soybean explants; [9]): 3.7%
- Confirmed events (soybean explants; [9]): 8
- TE range (%) (soybean explants; [9]): 1.3-8.1%
- Ave TE (%) (soybean explants; [10]): 2.5%
- Confirmed events (soybean explants; [10]): 6
- TE range (%) (soybean explants; [10]): 2.3-2.7%
- Ave TE (%) (soybean explants; [11]): 1.8%
- Confirmed events (soybean explants; [11]): 4
- TE range (%) (soybean explants; [11]): 1.2-3%
- Ave TE (%) (soybean explants; [12]): 2.2%
- Confirmed events (soybean explants; [12]): 5
- TE range (%) (soybean explants; [12]): 0-5.2%
- average transformation efficiency with kinetin in the co-cultivation media compared with BAP (soybean explants; both experiments): higher average transformation efficiencies
